This note sets out measurements from ChEMBL document CHEMBL1201862, “PubChem BioAssay data set” (2004).

Some test systems named below: MOLT-4; EKVX; HCT-116; CAKI-1; OVCAR-5; U-251; SF-268; PC-3; HOP-62; A498; MDA-MB-231; 786-0; DU-145; CCRF-CEM; SNB-19; LOX IMVI; SK-MEL-2; UACC-62; Malme-3M.
What all share (experiment): NCI anticancer screen, dose series, 48 h

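Results reflect a 48-hour exposure of cells in 96-well plates to compound at five concentrations. GI50 marks 50% less growth.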 Calls of active or inactive are those of the source. Cut-off read from the data, not from the text of the source: active = GI50 up to about 1.1 µM and inactive = higher.

For `O=C(O)C(Cc1ccccc1)Cc1ccccc1`, the GI50 in the assay on MOLT-4, in the assay with EKVX, in the assay with HCT-116, in the assay with CAKI-1, in the assay with OVCAR-5 and in the assay with U-251 was > 100 µM (inactive) each time. Besides, the GI50 in the assay with SF-268, in the assay with PC-3, in the assay on HOP-62, in the assay with A498, with MDA-MB-231 and in the assay with 786-0 was > 100 µM (inactive) throughout. In addition, the GI50 in the assay on DU-145, in the assay on CCRF-CEM, in the assay on SNB-19, with LOX IMVI, with SK-MEL-2 and in the assay on UACC-62 was > 100 µM (inactive) each time. Moreover, the GI50 with Malme-3M was > 100 µM (inactive).
As for `Cc1cccc(/C=N/NC(=S)N(C)CCc2ccccn2)n1`, the GI50 was 0.0647 µM (active) in the assay with MOLT-4; 0.391 µM (active) with EKVX; 0.256 µM (active) in the assay on HCT-116; 0.421 µM (active) with CAKI-1; 4.93 µM (inactive) in the assay on OVCAR-5; 0.347 µM (active) in the assay with U-251. Besides, the GI50 in the assay on SF-268 was 0.278 µM (active); with PC-3, 0.288 µM (active); with HOP-62, 0.32 µM (active); in the assay with A498, 0.285 µM (active); with MDA-MB-231, 1.16 µM (inactive); in the assay on 786-0, 0.281 µM (active). Moreover, the GI50 is 0.236 µM (active) in the assay with DU-145; 0.0288 µM (active) with CCRF-CEM; 0.729 µM (active) with SNB-19; 0.207 µM (active) in the assay with LOX IMVI; 0.661 µM (active) in the assay on SK-MEL-2; 0.287 µM (active) in the assay with UACC-62. The GI50 in the assay on Malme-3M is 0.361 µM (active).
For the molecule `O=C(OC(=C(c1ccccc1)c1ccccc1)N1CCCC1=S)C(c1ccccc1)c1ccccc1`, the GI50 is 5.01 µM (inactive) in the assay on MOLT-4; > 10 µM (inactive) in the assay with EKVX; 4.12 µM (inactive) with HCT-116; > 10 µM (inactive) in the assay with CAKI-1; > 10 µM (inactive) in the assay on OVCAR-5; 6.32 µM (inactive) in the assay with U-251. In addition, the GI50 is > 10 µM (inactive) in the assay on SF-268; 3.24 µM (inactive) in the assay with PC-3; > 10 µM (inactive) in the assay on HOP-62; 8.63 µM (inactive) with A498; 7.82 µM (inactive) with MDA-MB-231; > 10 µM (inactive) with 786-0. In addition, the GI50 in the assay on DU-145 is > 10 µM (inactive); with CCRF-CEM, 3.94 µM (inactive); in the assay with SNB-19 it was > 10 µM (inactive); in the assay on LOX IMVI, 3.17 µM (inactive); with SK-MEL-2, > 10 µM (inactive); in the assay on UACC-62, > 10 µM (inactive). The GI50 in the assay on Malme-3M was > 10 µM (inactive).
Take `Clc1ccc(C2=C(c3ccccc3)C(c3ccc(Cl)cc3)N3C(=N[C@H]4CCCC[C@@H]43)N2)cc1` (stereo not given in full): the GI50 was 4.46 µM (inactive) in the assay on MOLT-4; 12.4 µM (inactive) in the assay with EKVX; 4.08 µM (inactive) with HCT-116; 16.1 µM (inactive) in the assay on CAKI-1; 16.3 µM (inactive) in the assay on OVCAR-5; 11.3 µM (inactive) in the assay on U-251. Further, the GI50 is 19.9 µM (inactive) in the assay on SF-268; 10.2 µM (inactive) in the assay with PC-3; 17.3 µM (inactive) in the assay on A498; 14.9 µM (inactive) with MDA-MB-231; 14.7 µM (inactive) with 786-0; 13.2 µM (inactive) in the assay with DU-145. Also, the GI50 with CCRF-CEM was 3.58 µM (inactive); in the assay on SNB-19, 14.5 µM (inactive); with LOX IMVI, 11.8 µM (inactive); in the assay with SK-MEL-2 it was 16.4 µM (inactive); in the assay with UACC-62, 16.7 µM (inactive); in the assay with Malme-3M it was 16.5 µM (inactive).
`CCOC(=O)/C(C(N)=O)=C(O)/C(O)=C/C(=O)c1ccc(Cl)cc1`: the GI50 was 20.1 µM (inactive) with MOLT-4; 25.9 µM (inactive) in the assay with EKVX; 14.1 µM (inactive) in the assay with HCT-116; 24.1 µM (inactive) with CAKI-1; 23.5 µM (inactive) with OVCAR-5; 15.6 µM (inactive) in the assay on U-251. For the same molecule, the GI50 is 20.6 µM (inactive) with SF-268; 19.1 µM (inactive) in the assay with PC-3; 21.9 µM (inactive) with HOP-62; > 100 µM (inactive) in the assay on A498; 17.3 µM (inactive) with MDA-MB-231; 17.2 µM (inactive) with 786-0. Also, the GI50 in the assay on DU-145 was 14.8 µM (inactive); in the assay on CCRF-CEM it was 4.53 µM (inactive); in the assay with SNB-19, 33.3 µM (inactive); with LOX IMVI, 16.3 µM (inactive); in the assay with SK-MEL-2, 18.5 µM (inactive); with UACC-62, 20.6 µM (inactive). Besides, the GI50 in the assay with Malme-3M is 17.9 µM (inactive).
As to `O=P1(C(O)/C=C/c2ccccc2)N(Cc2ccccc2)[C@@H]2CCCC[C@H]2N1Cc1ccccc1` (stereo not given in full), the GI50 in the assay with MOLT-4 was 2.93 µM (inactive); in the assay on EKVX, 6.7 µM (inactive); in the assay with HCT-116 it was 3.54 µM (inactive); in the assay with CAKI-1, 13.1 µM (inactive); in the assay with OVCAR-5, 10.6 µM (inactive); with U-251 it was 4.21 µM (inactive). The GI50 was 4.05 µM (inactive) in the assay on SF-268; 3.14 µM (inactive) with PC-3; 11.1 µM (inactive) in the assay with HOP-62; 3.02 µM (inactive) with A498; 10.8 µM (inactive) in the assay with MDA-MB-231; 5.94 µM (inactive) with 786-0. The GI50 in the assay with DU-145 is 12.9 µM (inactive); in the assay with CCRF-CEM it was 5.19 µM (inactive); in the assay on SNB-19, 6.22 µM (inactive); in the assay on LOX IMVI, 3.8 µM (inactive); in the assay with SK-MEL-2, 2.62 µM (inactive); in the assay on UACC-62, 6.98 µM (inactive). Further, the GI50 with Malme-3M is 2.98 µM (inactive).
As for `CNC(=S)N/N=C1\C(=O)N(CN2CCOCC2)c2ccc([N+](=O)[O-])cc21`, the GI50 was 43.6 µM (inactive) in the assay with MOLT-4; 15.6 µM (inactive) in the assay with EKVX; 15.4 µM (inactive) in the assay with HCT-116; 17.7 µM (inactive) in the assay with CAKI-1; 22.8 µM (inactive) with OVCAR-5; 14.7 µM (inactive) in the assay on U-251. For the same molecule, the GI50 is 20.2 µM (inactive) with SF-268; 22.1 µM (inactive) in the assay on PC-3; 14.1 µM (inactive) with HOP-62; 24.5 µM (inactive) in the assay on A498; 11.9 µM (inactive) with MDA-MB-231; 15.3 µM (inactive) in the assay with 786-0. For the same molecule, the GI50 in the assay with DU-145 is 13.7 µM (inactive); with CCRF-CEM, 23.5 µM (inactive); in the assay with SNB-19, 21.9 µM (inactive); in the assay with LOX IMVI, 17.4 µM (inactive); in the assay with SK-MEL-2, 6.5 µM (inactive); in the assay with UACC-62 it was 15.3 µM (inactive). The GI50 with Malme-3M is 16.1 µM (inactive).
Consider `COC1=C(Br)[C@H](O)[C@@]2(C=C1Br)CC(C(=O)NCCCOc1c(Br)cc(C(O)CNC(C)=O)cc1Br)=NO2` (stereo not given in full) [APLYSINAMISINE III], for which the GI50 in the assay on MOLT-4 is 7.73 µM (inactive); in the assay with HCT-116, > 10 µM (inactive); with CAKI-1, > 10 µM (inactive); in the assay with OVCAR-5, > 10 µM (inactive); in the assay on U-251, > 10 µM (inactive); in the assay with SF-268, > 10 µM (inactive). The GI50 in the assay on PC-3, in the assay on HOP-62, with A498, in the assay on MDA-MB-231, with 786-0 and with DU-145 was > 10 µM (inactive) each time. The GI50 with CCRF-CEM was > 10 µM (inactive); in the assay with SNB-19, > 10 µM (inactive); with LOX IMVI it was > 10 µM (inactive); with SK-MEL-2, 8.79 µM (inactive); with UACC-62, > 10 µM (inactive); with Malme-3M, 6.03 µM (inactive).
